Patent publication US8993632B2, “Inhibitors of the 11-beta-hydroxysteroid dehydrogenase type 1 enzyme” (AbbVie Inc., priority 2005, dated 2015)

Experiments:
[1] = biological target: T1, truncated human 11β-HSD-1 enzyme (24-287AA) (Homo sapiens, UniProt P28845); assay: 11β-HSD-1 enzymatic Scintillation Proximity Assay (SPA); type: biochemical
T1 construct: truncated human 11β-HSD-1 enzyme (24-287AA); made in house; host or cells: E. coli (crude lysate)
Protocol: (§1) The reaction was stopped by adding a non-specific 11β-HSD inhibitor, 18β-glycyrrhetinic acid. The tritiated cortisol was captured by a mixture of an anti-cortisol monoclonal antibody and SPA beads coated with anti-mouse antibodies. The reaction plate was shaken at room temperature and the radioactivity bound to SPA beads was then measured on a β-scintillation counter. The 11-βHSD-1 assay was carried out in 96-well microtiter plates in a total volume of 220 μl. […] In order to drive the reaction in the forward direction, 1 mM G-6-P was also added. Solid compound was dissolved in DMSO to make a 10 mM stock followed by a subsequent 10-fold dilution with 3% DMSO in Tris/EDTA buffer (pH 7.4). […] Reactions were initiated by the addition of 10 μl of 0.1 mg/ml E. coli lysates overexpressing 11β-HSD-1 enzyme. After shaking and incubating plates for 30 minutes at room temperature, reactions were stopped by adding 10 μl of 1 mM glycyrrhetinic acid. The product, tritiated cortisol, was captured by adding 10 μl of […] monoclonal anti-cortisol antibodies and 100 μl SPA beads coated with anti-mouse antibodies. After shaking for 30 minutes, plates were read on a liquid scintillation counter Topcount. Percent inhibition was calculated based on the background and the maximal signal. Wells that contained substrate without compound or enzyme were used as the background, while the wells that contained substrate and enzyme without any compound were considered as maximal signal. Percent of inhibition of each compound was calculated relative to the maximal signal and IC50 curves were generated. This assay was applied to 11β-HSD-2 as well, whereby tritiated cortisol and NAD^+ were used as substrate and cofactor, respectively.

[2] = biological target: T2, human 11-β-HSD-2 (Homo sapiens, UniProt P80365); assay: 11β-HSD-2 Scintillation Proximity Assay (tritiated cortisol, NAD+); type: biochemical; details: human enzyme, SPA
T2 sequence (P80365 1-405): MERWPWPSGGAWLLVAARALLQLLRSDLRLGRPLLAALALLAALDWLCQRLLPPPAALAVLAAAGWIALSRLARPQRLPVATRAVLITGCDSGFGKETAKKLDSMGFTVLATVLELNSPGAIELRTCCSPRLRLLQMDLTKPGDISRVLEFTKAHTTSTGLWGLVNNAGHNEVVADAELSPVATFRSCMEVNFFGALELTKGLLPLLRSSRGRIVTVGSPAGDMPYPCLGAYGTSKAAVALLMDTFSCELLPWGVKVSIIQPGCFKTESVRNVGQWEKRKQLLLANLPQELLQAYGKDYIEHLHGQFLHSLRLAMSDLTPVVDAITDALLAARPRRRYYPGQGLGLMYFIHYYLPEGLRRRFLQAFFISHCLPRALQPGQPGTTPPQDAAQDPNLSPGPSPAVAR
Protocol: as §1

T1 sequence (P28845 24-287): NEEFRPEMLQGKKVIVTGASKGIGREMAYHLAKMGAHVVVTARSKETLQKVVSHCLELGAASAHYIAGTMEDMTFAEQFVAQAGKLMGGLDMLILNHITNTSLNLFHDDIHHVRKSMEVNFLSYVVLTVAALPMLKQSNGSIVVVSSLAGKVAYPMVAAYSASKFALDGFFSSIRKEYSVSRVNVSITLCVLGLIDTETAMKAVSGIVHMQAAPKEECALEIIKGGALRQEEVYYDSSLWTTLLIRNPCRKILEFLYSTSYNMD

| IC50 [1] | IC50 [2] | SMILES |
| --- | --- | --- |
| 23 nM | 12000 nM | Cc1ccccc1CN1CCC(C)(C(=O)N[C@@H]2[C@@H]3C[C@@H]4C[C@H]2C[C@@](C(N)=O)(C4)C3)C1=O (stereo partly drawn) [CC] |
| 43 nM | 16000 nM | NC(=O)[C@]12C[C@@H]3C[C@H](C1)[C@@H](NC(=O)C1(c4ccccc4)CCCC1)[C@@H](C3)C2 [Compound K, E-4-{[(1-phenylcyclopentyl)carbonyl]amino}adamantane-1-carboxamide] |
| 25 nM | 16000 nM | NC(=O)[C@]12C[C@@H]3C[C@H](C1)[C@@H](NC(=O)C1(c4cccc(F)c4)CCCC1)[C@@H](C3)C2 [Compound L, E-4-({[1-(3-fluorophenyl)cyclopentyl]carbonyl}amino)adamantane-1-carboxamide] |
| 30 nM | > 30000 nM | NC(=O)[C@]12C[C@@H]3C[C@H](C1)[C@@H](NC(=O)C1(c4ccc(F)cc4Cl)CCCC1)[C@@H](C3)C2 [Compound M, E-4-({[1-(2-chloro-4-fluorophenyl)cyclopentyl]carbonyl}amino)adamantane-1-carboxamide] |
| 31 nM | > 30000 nM | CC(C)(C(=O)N[C@@H]1[C@@H]2C[C@@H]3C[C@H]1C[C@@](C(N)=O)(C3)C2)c1ccc(-c2ccncc2)cc1 [Compound T, E-4-{[2-methyl-2-(4-pyridin-4-ylphenyl)propanoyl]amino}adamantane-1-carboxamide] |
| 23 nM | 6300 nM | CC1(C(=O)N[C@@H]2[C@@H]3C[C@@H]4C[C@H]2C[C@@](C(N)=O)(C4)C3)CCN(Cc2ccccc2Cl)C1=O (stereo partly drawn) [DD] |
| 28 nM | > 100000 nM | Cn1cc(-c2ccc(C(C)(C)C(=O)N[C@@H]3[C@@H]4C[C@@H]5C[C@H]3C[C@@](C(N)=O)(C5)C4)cc2)cn1 [FF, E-4-({2-methyl-2-[4-(1-methyl-1H-pyrazol-4-yl)phenyl]propanoyl}amino)adamantane-1-carboxamide] |
| 59 nM | 7400 nM | NC(=O)[C@]12C[C@@H]3C[C@H](C1)[C@@H](NC(=O)C1(c4ccc(Cl)cc4)CCCCC1)[C@@H](C3)C2 [G, E-4-({[1-(4-chlorophenyl)cyclohexyl]carbonyl}amino)adamantane-1-carboxamide] |
| 17 nM | 9300 nM | CC(C)(C(=O)N[C@@H]1[C@@H]2C[C@@H]3C[C@H]1C[C@@](C(N)=O)(C3)C2)c1cccc(Br)c1 [GG, E-4-{[2-(3-bromophenyl)-2-methylpropanoyl]amino}adamantane-1-carboxamide] |
| 33 nM | > 30000 nM | NC(=O)[C@]12C[C@@H]3C[C@H](C1)[C@@H](NC(=O)C1(c4ccc(Cl)cc4)CC1)[C@@H](C3)C2 [H, E-4-({[1-(4-chlorophenyl)cyclopropyl]carbonyl}amino)adamantane-1-carboxamide] |
| 44 nM | 40000 nM | Cc1noc(C)c1-c1ccc(C(C)(C)C(=O)N[C@@H]2[C@@H]3C[C@@H]4C[C@H]2C[C@@](C(N)=O)(C4)C3)cc1 [HH, E-4-({2-[4-(3,5-dimethylisoxazol-4-yl)phenyl]-2-methylpropanoyl}amino)adamantane-1-carboxamide] |
| – | 12000 nM | NC(=O)[C@]12C[C@@H]3C[C@H](C1)[C@@H](NC(=O)C1(c4ccc(Cl)cc4)CCCC1)[C@@H](C3)C2 [I, E-4-({[1-(4-chlorophenyl)cyclopentyl]carbonyl}amino)adamantane-1-carboxamide] |
| – | 44000 nM | CC(C)(C(=O)N[C@@H]1[C@@H]2C[C@@H]3C[C@H]1C[C@@](C(N)=O)(C3)C2)c1ccc(-c2cccnc2)cc1 [II, E-4-{[2-methyl-2-(4-pyridin-3-ylphenyl)propanoyl]amino}adamantane-1-carboxamide] |
| 33 nM | – | CC(C)(C(=O)N[C@@H]1[C@@H]2C[C@@H]3C[C@H]1C[C@@](C(N)=O)(C3)C2)c1ccc(Cl)cc1 [J, E-4-{[2-(4-chlorophenyl)-2-methylpropanoyl]amino}adamantane-1-carboxamide] |
| 95 nM | 60000 nM | CC(C)(C(=O)N[C@@H]1[C@@H]2C[C@@H]3C[C@H]1C[C@@](C(=O)NCc1ccc(C(=O)O)cc1)(C3)C2)c1cccs1 [JJ, 4-{[({(E)-4-[(2-methyl-2-thien-2-ylpropanoyl)amino]-1-adamantyl}carbonyl)amino]methyl}benzoic acid] |
| 31 nM | > 30000 nM | NC(=O)[C@]12C[C@@H]3C[C@H](C1)[C@@H](NC(=O)C1(c4ccc(F)cc4)CCCC1)[C@@H](C3)C2 [N, E-4-({[1-(4-fluorophenyl)cyclopentyl]carbonyl}amino)adamantane-1-carboxamide] |
| 38 nM | 16000 nM | NC(=O)[C@]12C[C@@H]3C[C@H](C1)[C@@H](NC(=O)C1(c4ccccc4F)CCCC1)[C@@H](C3)C2 [O, E-4-({[1-(2-fluorophenyl)cyclopentyl]carbonyl}amino)adamantane-1-carboxamide] |
| 38 nM | > 30000 nM | CC1(C(=O)N[C@@H]2[C@@H]3C[C@@H]4C[C@H]2C[C@@](C(N)=O)(C4)C3)CCCCC1 [P, E-4-{[(1-methylcyclohexyl)carbonyl]amino}adamantane-1-carboxamide] |
| 36 nM | 16000 nM | NC(=O)[C@]12C[C@@H]3C[C@H](C1)[C@@H](NC(=O)C1(c4ccc(Cl)cc4Cl)CC1)[C@@H](C3)C2 [Q, E-4-({[1-(2,4-dichlorophenyl)cyclopropyl]carbonyl}amino)adamantane-1-carboxamide] |
| 27 nM | 21000 nM | COc1ccc(C2(C(=O)N[C@@H]3[C@@H]4C[C@@H]5C[C@H]3C[C@@](C(N)=O)(C5)C4)CC2)cc1 [R, E-4-({[1-(4-methoxyphenyl)cyclopropyl]carbonyl}amino)adamantane-1-carboxamide] |
| 37 nM | 15000 nM | Cc1ccc(C2(C(=O)N[C@@H]3[C@@H]4C[C@@H]5C[C@H]3C[C@@](C(N)=O)(C5)C4)CC2)cc1 [S, E-4-({[1-(4-methylphenyl)cyclopropyl]carbonyl}amino)adamantane-1-carboxamide] |
| 16 nM | 12000 nM | CC(C)(C(=O)N[C@@H]1[C@@H]2C[C@@H]3C[C@H]1C[C@@](C(N)=O)(C3)C2)c1cccs1 [U, E-4-[(2-methyl-2-thien-2-ylpropanoyl)amino]adamantane-1-carboxamide] |
| 19 nM | 15000 nM | CC(C)(C(=O)N[C@@H]1[C@@H]2C[C@@H]3C[C@H]1C[C@@](C(N)=O)(C3)C2)c1ccsc1 [V, E-4-[(2-methyl-2-thien-3-ylpropanoyl)amino]adamantane-1-carboxamide] |
| 23 nM | > 30000 nM | CC(C)(C(=O)N[C@@H]1[C@@H]2C[C@@H]3C[C@H]1C[C@@](C(N)=O)(C3)C2)c1ccc(C(F)(F)F)cn1 [W, E-4-({2-methyl-2-[5-(trifluoromethyl)pyridin-2-yl]propanoyl}amino)adamantane-1-carboxamide] |
| 104 nM | > 30000 nM | CC(C)(C(=O)N[C@@H]1[C@@H]2C[C@@H]3C[C@H]1C[C@@](C(N)=O)(C3)C2)c1ccc(-c2ccc(C(F)(F)F)cn2)cc1 [X, E-4-[(2-methyl-2-{4-[5-(trifluoromethyl)pyridin-2 yl]phenyl}propanoyl)amino]adamantane-1-carboxamide] |
| 18 nM | 13000 nM | COc1ccc(C2(C(=O)N[C@@H]3[C@@H]4C[C@@H]5C[C@H]3C[C@@](C(N)=O)(C5)C4)CCCC2)cc1 [Y, E-4-({[1-(4-methoxyphenyl)cyclopentyl]carbonyl}amino)adamantane-1-carboxamide] |
| 21 nM | 23000 nM | CC(C)(C(=O)N[C@@H]1[C@@H]2C[C@@H]3C[C@H]1C[C@@](C(N)=O)(C3)C2)c1ccc(Br)cc1 [Z, E-4-{[2-(4-bromophenyl)-2-methylpropanoyl]amino}adamantane-1-carboxamide] |
